Assay results taken from patent publication US20080213219A1, “Methods for treatment and management of macular degeneration using 3-(4-amino-1-oxo-1,3-dihydro-isoindol-2-yl)-piperidine-2,6-dione” (Celgene Corporation, priority 2002, published 2008).

Columns and labels:
laser-induced CNVM = conditions: intravitreal injection, monkeys; cited from earlier work
MD [1] = conditions: intravitreal injection, one-year period, patients with MD; cited from earlier work
TNF-α production [2] = test: Inhibition of TNF-α production following LPS-stimulation of human PBMC; assay type: cell-based; conditions: LPS-stimulated PBMC, read-out: IC50 for inhibiting production of TNF-α
Description: (§1) In a specific embodiment, inhibitions of TNF-α production following LPS-stimulation of human PBMC and human whole blood by 3-(4-amino-1-oxo-1,3-dihydro-isoindol-2-yl)-piperidine-2,6-dione, 4-(amino)-2-(2,6-dioxo-(3-piperidyl))-isoindoline-1,3-dione or thalidomide were investigated in vitro.

TNF-α production [3] = test: Inhibition of TNF-α production following LPS-stimulation of human whole blood; assay type: cell-based; conditions: LPS-stimulated human whole blood; read-out: IC50 for inhibiting production of TNF-α
Description: as §1

[4] = system: TNF-α, IL1β, IL6, IL10 production; test: LPS-stimulated cytokine production by PBMC; assay type: cell-based
macular degeneration = test: Clinical study in patients with macular degeneration, adjuvant to photodynamic therapy with verteporfin; assay type: in vivo; conditions: about 10 mg/day for 20 weeks as adjuvant to verteporfin photodynamic therapy
Method: Immunomodulatory compounds are administered in an amount of about 0.1 to about 25 mg per day to patients with macular degeneration. In a specific embodiment, clinical studies are performed with forty patients with macular degeneration, who are divided into two groups. The first group receives conventional treatment for closing the leaking choroidal vessels (characteristic of this disease) by photodynamic therapy with verteporfin. Opthalmol 1999 (117): 1329-1345. The second group receives the same conventional therapy with verteporfin and 3-(4-amino-1-oxo-1,3-dihydro-isoindol-2-yl)-piperidine-2,6-dione in an amount of about 10 mg/day as an adjuvant for 20 weeks.
However, the first group without 3-(4-amino-1-oxo-1,3-dihydro-isoindol-2-yl)-piperidine-2,6-dione experiences progressive reperfusion of the ablated vessels several weeks after treatment. Progressive visual loss follows which requires the photodynamic therapy to be repeated.

MD [5] = conditions: cited from earlier work

Molecule	growth of laser-induced CNVM (laser-induced CNVM)	prevention of severe visual loss (MD [1])	IC50 (TNF-α production [2]) [nM]	IC50 (TNF-α production [3]) [nM]	LPS-stimulated production of IL1β [4]	LPS-stimulated production of IL6 [4]	LPS-stimulated production of TNF-α [4]	production of the anti-inflammatory cytokine IL10 [4]	neovascular cascade / duration of the effects of photodynamic therapy (macular degeneration)	efficacy at treating MD (MD [5]; clinical trial)	rate of adverse effects (MD [5]; in vivo)
C[C@]12C=CC(=O)C=C1CC[C@H]1[C@@H]3C[C@@H](O)[C@](O)(C(=O)CO)[C@@]3(C)C[C@H](O)[C@@]12F [triamcinolone]	inhibits	fails to prevent	–	–	–	–	–	–	–	–	–
Nc1cccc2c1CN(C1CCC(=O)NC1=O)C2=O (centres unmarked) [3-(4-Amino-1-oxo-1,3-dihydro-isoindol-2-yl)-piperidine-2,6-dione]	–	–	~100	~480	dose-dependent inhibition	dose-dependent inhibition	dose-dependent inhibition	increased production	sufficiently hindered	–	–
interferon-α	–	–	–	–	–	–	–	–	–	ineffective	high rate of adverse effects
Nc1cccc2c1C(=O)N(C1CCC(=O)NC1=O)C2=O (centres unmarked) [4-(Amino)-2-(2,6-dioxo(3-piperidyl))-isoindoline-1,3-dione]	–	–	~24	~25	dose-dependent inhibition	dose-dependent inhibition	dose-dependent inhibition	increased production	–	–	–
